One experiment concerns the target CDK4/CyclinD1 (Homo sapiens, UniProt P11802). Nature of the experiment: CDK4/CyclinD1 Flashplate assay, 96-well format, biotinylated-Rb peptide substrate. The class given is biochemical. The method in brief:
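Biotinylated Rb peptide bound to streptavidin Flashplate; CDK4/CyclinD1 (70 ng/well) preincubated 30 min on ice with compound at 10, 3, 1, 0.3 and 0.1 μM final. Reaction with 1 μM cold ATP plus 33P-ATP for 45 min at RT; incorporated 33P counted, duplicates.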

A further experiment concerns the target CDK2/CyclinE (Homo sapiens, UniProt P24941). Nature of the experiment: CDK2/CyclinE Flashplate assay, 96-well format, biotinylated-Rb peptide substrate. The class given is biochemical. Summed up:
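Biotinylated Rb peptide was captured on streptavidin Flashplates, and CDK2/CyclinE (200 ng/well) was preincubated 30 min on ice with inhibitor at 10, 3, 1, 0.3 or 0.1 μM final. Reactions ran 45 min at RT with 1 μM ATP plus 1 μCi ^33P-ATP. After washing, incorporated ^33P was counted, in duplicate.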

Each structure is given as a SMILES string.

CDK4/CyclinD1, sequence (P11802 whole entry, species assumed): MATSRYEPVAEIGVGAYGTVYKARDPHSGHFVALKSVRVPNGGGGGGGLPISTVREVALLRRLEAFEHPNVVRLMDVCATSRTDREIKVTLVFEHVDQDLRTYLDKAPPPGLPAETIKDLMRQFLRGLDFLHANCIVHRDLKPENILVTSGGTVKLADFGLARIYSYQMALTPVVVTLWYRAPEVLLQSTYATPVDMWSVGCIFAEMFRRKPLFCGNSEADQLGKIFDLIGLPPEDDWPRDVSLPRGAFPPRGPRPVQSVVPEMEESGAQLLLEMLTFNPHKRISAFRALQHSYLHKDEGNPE
CDK4/CyclinD1, sequence (P24385 whole entry partner, species assumed): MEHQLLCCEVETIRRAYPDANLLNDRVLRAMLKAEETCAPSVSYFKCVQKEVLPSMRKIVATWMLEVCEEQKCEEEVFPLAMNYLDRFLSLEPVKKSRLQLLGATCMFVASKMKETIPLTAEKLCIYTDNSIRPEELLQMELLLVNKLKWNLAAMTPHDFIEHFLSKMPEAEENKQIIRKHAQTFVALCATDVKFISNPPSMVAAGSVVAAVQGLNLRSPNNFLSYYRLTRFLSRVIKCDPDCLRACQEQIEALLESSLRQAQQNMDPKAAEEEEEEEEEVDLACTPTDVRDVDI

The IC50 is the concentration needed to halve the response being measured. High values mean a need for much substance, low ones inhibition by little substance. For the compound `NC(=O)CNC(=O)Nc1nc2cc(OS(=O)(=O)c3ccc(NC4CCCC4)cc3)ccc2[nH]1` [Example 58-s, 4-Cyclopentylamino-benzenesulfonic acid 2-(3-carbamoylmethyl-ureido)-1H-benzoimidazol-5-yl ester], the IC50 against CDK4/CyclinD1 was found to be 12 nM; against CDK2/CyclinE, 20 nM.
Taken in the same sequence, the figures for `O=C(NCCO)Nc1nc2cc(OS(=O)(=O)c3ccc(NCC4CCCO4)cc3)ccc2[nH]1` (centres unmarked) [Example 59-b, 4-[(Tetrahydro-furan-2-ylmethyl)-amino]-benzenesulfonic acid 2-[3-(2-hydroxy-ethyl)-ureido]-1H-benzoimidazol-5-yl ester] were 300 nM and 7 nM.
With `CC(C)(N)CNC(=O)Nc1nc2cc(OS(=O)(=O)c3ccc(NC4CCCC4)cc3)ccc2[nH]1` [Example 58-w, 4-Cyclopentylamino-benzenesulfonic acid 2-[3-(2-amino-2-methyl-propyl)-ureido]-1H-benzoimidazol-5-yl ester], the IC50 on CDK4/CyclinD1 amounted to 190 nM; against CDK2/CyclinE it was 250 nM.
Turning to `Cc1cc(C)cc(Nc2nc3cc(OS(=O)(=O)c4ccc(NC5CCCC5)cc4)ccc3[nH]2)c1` [Example 70-c, 4-Cyclopentylamino-benzenesulfonic acid 2-(3,5-dimethyl-phenylamino)-1H-benzoimidazol-5-yl ester], the figures for the concentration for half-maximal inhibition (IC50) against CDK4/CyclinD1 and at CDK2/CyclinE were 2000 nM and 800 nM, respectively.
Taken in the same sequence, the figures for `CN(C)CC(=O)Nc1nc2cc(OS(=O)(=O)c3ccc(NC4CCCC4)cc3)ccc2[nH]1` [Example 29, 4-Cyclopentylamino-benzenesulfonic acid 2-(2-dimethylamino-acetylamino)-1H-benzoimidazol-5-yl ester] were 1700 nM and 600 nM.
For `CCN1CCCC1CNC(=O)Nc1nc2cc(OS(=O)(=O)c3ccc(NC4CCCC4)cc3)ccc2[nH]1` (centres unmarked) [Example 58-ah, 4-Cyclopentylamino-benzenesulfonic acid 2-[3-(1-ethyl-pyrrolidin-2-ylmethyl)-ureido]-1H-benzoimidazol-5-yl ester], the IC50 against CDK4/CyclinD1 came to 330 nM; at CDK2/CyclinE it was 30 nM.
Consider `NC(=O)CNC(=O)Nc1nc2cc(OS(=O)(=O)c3ccc(NCC4CCCO4)cc3)ccc2[nH]1` (centres unmarked) [Example 59-a, 4-[(Tetrahydro-furan-2-ylmethyl)-amino]-benzenesulfonic acid 2-(3-carbamoylmethyl-ureido)-1H-benzoimidazol-5-yl ester], for which the IC50 on CDK4/CyclinD1 stood at 100 nM; on CDK2/CyclinE it was 8 nM.
The matching figures for `O=C(NCCCN1CCCC1=O)Nc1nc2cc(OS(=O)(=O)c3ccc(NC4CCCC4)cc3)ccc2[nH]1` [Example 58-ac, 4-Cyclopentylamino-benzenesulfonic acid 2-{3-[3-(2-oxo-pyrrolidin-1-yl)-propyl]-ureido}-1H-benzoimidazol-5-yl ester]: 170 nM and 13 nM.
By inhibition is commonly meant how much of the control response was suppressed. Low readings indicate a response near the control, high ones a response far below the control. Turning to `O=C(Nc1nc2cc(OS(=O)(=O)c3ccc(NC4CCCC4)cc3)ccc2[nH]1)NC1CCCC1` [Example 58-c, 4-Cyclopentylamino-benzenesulfonic acid 2-(3-cyclopentyl-ureido)-1H-benzoimidazol-5-yl ester], at 10 µM the inhibition against CDK4/CyclinD1 was 60%. Also, on CDK2/CyclinE, the half-inhibitory concentration (IC50) is 600 nM.
Take `COCCCNc1ccc(S(=O)(=O)Oc2ccc3[nH]c(NC(=O)OC)nc3c2)cc1` [Example 13, Methyl-5-(4-[3-methoxypropyl]aminophenyl-sulfonyloxy) benzimidazole-2-carbamate]: the IC50 was determined as 400 nM against CDK4/CyclinD1 and 2000 nM on CDK2/CyclinE.
Turning to `O=C(NCCCN1CCCC1)Nc1nc2cc(OS(=O)(=O)c3ccc(NC4CCCC4)cc3)ccc2[nH]1` [Example 58-ag, 4-Cyclopentylamino-benzenesulfonic acid 2-[3-(3-pyrrolidin-1-yl-propyl)-ureido]-1H-benzoimidazol-5-yl ester], the IC50 was 390 nM against CDK4/CyclinD1 and 40 nM against CDK2/CyclinE.
Take `O=S(=O)(Oc1ccc2[nH]c(Nc3ccc(N4CCOCC4)cc3)nc2c1)c1ccc(NC2CCCC2)cc1` [Example 70-b, 4-Cyclopentylamino-benzenesulfonic acid 2-(4-morpholin-4-yl-phenylamino)-1H-benzoimidazol-5-yl ester]: the IC50 against CDK4/CyclinD1 is 670 nM; on CDK2/CyclinE it was 3000 nM.
On to `CC(C)NC(=O)Nc1nc2cc(OS(=O)(=O)c3ccc(NC4CCCC4)cc3)ccc2[nH]1` [Example 34, 4-Cyclopentylamino-benzenesulfonic acid 2-(3-isopropyl-ureido)-1H-benzoimidazol-5-yl ester], for which the IC50 against CDK4/CyclinD1 is 1180 nM; on CDK2/CyclinE, 120 nM.
Take `O=C(Nc1nc2cc(OS(=O)(=O)c3ccc(NC4CCCC4)cc3)ccc2[nH]1)NC1CCC1` [Example 51, 4-Cyclopentylamino-benzenesulfonic acid 2-(3-cyclobutyl-ureido)-1H-benzoimidazol-5-yl ester]: the concentration for half-maximal inhibition (IC50) against CDK4/CyclinD1 was 800 nM; against CDK2/CyclinE, 140 nM.
Consider `O=C(NCc1ccccc1F)Nc1nc2cc(OS(=O)(=O)c3ccc(-n4ccnc4)cc3)ccc2[nH]1` [Example 57-h, 4-Imidazol-1-yl-benzenesulfonic acid 2-[3-(2-fluoro-benzyl)-ureido]-1H-benzoimidazol-5-yl ester], for which the IC50 at CDK4/CyclinD1 is 4400 nM; against CDK2/CyclinE it was 100 nM.
With `O=C(NCc1ccncc1)Nc1nc2cc(OS(=O)(=O)c3ccc(NC4CCCC4)cc3)ccc2[nH]1` [Example 52, 4-Cyclopentylamino-benzenesulfonic acid 2-(3-pyridin-4-ylmethyl-ureido)-1H-benzoimidazol-5-yl ester], the IC50 at CDK4/CyclinD1 amounted to 1000 nM; against CDK2/CyclinE, 80 nM.
For the compound `COC(=O)Nc1nc2cc(OS(=O)(=O)c3ccc(NC4CCCC4)cc3)ccc2[nH]1` [Example 19, Methyl-5-(4-cyclopentylaminophenylsulfonyloxy) benzimidazole-2-carbamate], the IC50 was determined as 2920 nM against CDK4/CyclinD1 and 700 nM on CDK2/CyclinE.
Turning to `O=C(Nc1cccc(Cl)c1)Nc1nc2cc(OS(=O)(=O)c3ccc(NC4CCCC4)cc3)ccc2[nH]1` [Example 42, 4-Cyclopentylamino-benzenesulfonic acid 2-[3-(3-chloro-phenyl)-ureido]-1H-benzoimidazol-5-yl ester], the inhibition at 10 µM at CDK4/CyclinD1 amounted to 84%. For the same compound, the IC50 against CDK2/CyclinE came to 910 nM.
Regarding `COC(=O)Nc1nc2cc(OS(=O)(=O)c3ccc(NCCS(=O)(=O)O)cc3)ccc2[nH]1` [Example 15, Methyl-5-(4-[2-sulfonylethyl]aminophenylsulfonyloxy) benzimidazole-2-carbamate], the results for the IC50 on CDK4/CyclinD1 and on CDK2/CyclinE were 300 nM and 1800 nM, respectively.
The compound `O=C(Nc1nc2cc(OS(=O)(=O)c3ccc(NC4CCCC4)cc3)ccc2[nH]1)N1CCC1` [Example 58-i, 4-Cyclopentylamino-benzenesulfonic acid 2-[(azetidine-1-carbonyl)-amino]-1H-benzoimidazol-5-yl ester] registered an inhibition at 10 µM against CDK4/CyclinD1 of 81%. Moreover, 300 nM corresponded to half-maximal inhibition against CDK2/CyclinE (IC50).
Turning to `CC(C)CNC(=O)Nc1nc2cc(OS(=O)(=O)c3ccc(NC4CCCC4)cc3)ccc2[nH]1` [Example 43, 4-Cyclopentylamino-benzenesulfonic acid 2-(3-isobutyl-ureido)-1H-benzoimidazol-5-yl ester], the IC50 is 1900 nM against CDK4/CyclinD1 and 200 nM against CDK2/CyclinE.
On to `O=C(NCc1cccnc1)Nc1nc2cc(OS(=O)(=O)c3ccc(NC4CCCC4)cc3)ccc2[nH]1` [Example 58-j, 4-Cyclopentylamino-benzenesulfonic acid 2-(3-pyridin-3-ylmethyl-ureido)-1H-benzoimidazol-5-yl ester], for which the figures for the IC50 on CDK4/CyclinD1 and against CDK2/CyclinE were 500 nM and 9 nM, respectively.
Take `CC(C)NCCNC(=O)Nc1nc2cc(OS(=O)(=O)c3ccc(NC4CCCC4)cc3)ccc2[nH]1` [Example 58-al, 4-Cyclopentylamino-benzenesulfonic acid 2-[3-(2-isopropylamino-ethyl)-ureido]-1H-benzoimidazol-5-yl ester]: the results for the concentration for half-maximal inhibition (IC50) on CDK4/CyclinD1 and at CDK2/CyclinE were 250 nM and 150 nM, respectively.
Take `COC(=O)Nc1nc2cc(OS(=O)(=O)c3ccc(-c4cc(C(F)(F)F)n(C)n4)s3)ccc2[nH]1` [Example 62-e, 5-(1-Methyl-5-trifluoromethyl-1H-pyrazol-3-yl)-thiophene-2-sulfonic acid 2-methoxycarbonylamino-1H-benzoimidazol-5-yl ester]: the values for the IC50 at CDK4/CyclinD1 and against CDK2/CyclinE were 4600 nM and 1000 nM, respectively.
Turning to `O=C(NCCN1CCOCC1)Nc1nc2cc(OS(=O)(=O)c3ccc(NCC4CCCO4)cc3)ccc2[nH]1` (centres unmarked) [Example 59-i, 4-[(Tetrahydro-furan-2-ylmethyl)-amino]-benzenesulfonic acid 2-[3-(2-morpholin-4-yl-ethyl)-ureido]-1H-benzoimidazol-5-yl ester], the IC50 came to 1200 nM against CDK4/CyclinD1 and 40 nM at CDK2/CyclinE.
With `O=C(NCCN1CCCCC1)Nc1nc2cc(OS(=O)(=O)c3ccc(NC4CCCC4)cc3)ccc2[nH]1` [Example 58-aj, 4-Cyclopentylamino-benzenesulfonic acid 2-[3-(2-piperidin-1-yl-ethyl)-ureido]-1H-benzoimidazol-5-yl ester], the figures for the IC50 against CDK4/CyclinD1 and at CDK2/CyclinE were 380 nM and 370 nM, respectively.
Consider `COc1ccc(NC(=O)Nc2nc3cc(OS(=O)(=O)c4ccc(NC5CCCC5)cc4)ccc3[nH]2)cc1` [Example 39, 4-Cyclopentylamino-benzenesulfonic acid 2-[3-(4-methoxy-phenyl)-ureido]-1H-benzoimidazol-5-yl ester], for which the IC50 on CDK4/CyclinD1 worked out at 1620 nM; against CDK2/CyclinE, 290 nM.
For `COCC(C)NC(=O)Nc1nc2cc(OS(=O)(=O)c3ccc(NCC4CCCO4)cc3)ccc2[nH]1` (centres unmarked) [Example 59-e, 4-[(Tetrahydro-furan-2-ylmethyl)-amino]-benzenesulfonic acid 2-[3-(2-methoxy-1-methyl-ethyl)-ureido]-1H-benzoimidazol-5-yl ester], the IC50 was 1600 nM on CDK4/CyclinD1 and 100 nM against CDK2/CyclinE.

(Values after US20050014811A1, “Substituted benzimidazole compounds and their use for the treatment of cancer” (Aventis Pharma S.A., priority 2001, published 2005).)
